From paper PMC11597353, “Synthesis of Novel Gefitinib-Conjugated 1,2,3-Triazole Derivatives and Their Effect of Inducing DNA Damage and Apoptosis in Tumor Cells” (Molecules, 2024)

Columns and labels:
Format in all cases: cell-based, human
HepG2 cells [1] = assay: Colony formation assay; settings: 7 days
Experimental: A colony formation assay is used to assess the ability of adherent cells to proliferate and form cell colonies on a plate, making it one of the key methods for evaluating cell proliferation. We also employed the colony formation assay to further confirm that compounds 11m and 11t can inhibit liver cancer cell proliferation (as shown in Figure 5). HepG2 cells were treated with low, medium, and high concentrations (2, 4, and 8 μmol/L) of the compounds for 7 days, followed by counting the number of cell colonies and analyzing the proliferation inhibition rate.
HepG2 cells were seeded in 6-well plates at a density of 500 cells per well and incubated at 37 °C for 24 h, followed by treatment with 11m or 11t (2, 4, and 8 μM) for 24 h. The medium was then replaced with fresh culture medium, and after 7 days, the culture medium was removed and washed with PBS. Cells were fixed with 4% paraformaldehyde at room temperature for 20 min, stained with 0.1% crystal violet staining solution at room temperature for 20 min, and excess staining solution was washed off with distilled water. The plates were dried at 37 °C, photographed, and the number of colonies was counted using ImageJ.

HepG2 cells [2] = assay: Annexin V-FITC/PI dual staining, flow cytometry apoptosis; settings: 48 h
Experimental: HepG2 cells were treated with DMSO or different concentrations of 11m and 11t for 48 h, followed by staining with Annexin-V and PI. The proportion of apoptotic cells was then analyzed using flow cytometry. […] Compared to the control group, the proportion of apoptotic cells increased gradually with increasing drug concentrations (p < 0.01, p < 0.05).
HepG2 cells were seeded in 6-well plates at a density of […] and incubated for 24 h. They were then treated with 11m or 11t at concentrations of 2, 4, and 8 μM for 48 h. After digestion with trypsin without EDTA and washing with PBS, the cells were resuspended in 500 µL Binding Buffer at a concentration of 1 × 10^6 cells/mL. Then, 5 μL of Annexin V-FITC was added, mixed well, followed by the addition of 5 μL Propidium Iodide, mixed gently, and incubated in the dark at room temperature (25 °C) for 10 min. Detection was performed using a flow cytometer (BD Accuri™ C6 Plus) within 1 h.

[3] = tested on: Bcl-2/Caspase-3/PARP signaling pathway; assay: Western blot of apoptosis-related proteins in HepG2 cells; settings: 48 h; for expression level of Bcl-2 / expression level of Caspase-3 / expression level of Caspase-9 / expression level of PARP / level of cleaved Caspase-3 / level of cleaved PARP: HepG2, 2, 4, 8 μM; for expression of Bax: HepG2, with increasing drug concentration
Text: We conducted an in-depth study on the mechanisms of apoptosis induced by compounds 11m and 11t (Figure 9). The Bcl-2 protein family is located upstream in the apoptosis signaling pathway, with Bcl-2 exerting anti-apoptotic and pro-proliferative effects by inhibiting the release of cytochrome C (cyt-c) from the mitochondria. Previous studies have reported that many anticancer drugs exert pro-apoptotic effects by downregulating Bcl-2. When apoptosis occurs, the expression level of Bcl-2 is suppressed, cyt-c is released, and it binds to apoptotic protease activating factor (Apaf-1) to form the apoptosome, triggering a cascade reaction involving the Caspase family proteins. The apoptosome first promotes the activation of Caspase-9, which in turn activates Caspase-3, forming cleaved Caspase-3. Cleaved Caspase-3 further activates downstream PARP proteins, ultimately promoting apoptosis. […] After treating HepG2 cells with different concentrations of the compounds for 48 h, we extracted cellular proteins and used Western blotting to detect changes in the expression of apoptosis-related proteins. […] The expression levels of Caspase-3, Caspase-9, and PARP decreased with increasing drug concentration, whereas the levels of cleaved Caspase-3 and cleaved PARP increased.
HepG2 cells were seeded in 6-well plates and incubated for 24 h. They were then treated with 11m or 11t at concentrations of 2, 4, or 8 μM for 48 h. The cells were harvested, and cytoplasmic and nuclear proteins were extracted using cell lysis buffer from Beyotime Biotechnology (Shanghai, China). Protein supernatants were mixed with loading buffer, denatured at 100 °C for 10 min, and quantified using BCA. Equal amounts of protein, along with molecular weight markers, were loaded onto a 12% SDS-PAGE gel and separated by electrophoresis for 2 h. The separated proteins were transferred onto NC membranes, and nonspecific binding sites on the membranes were blocked with 5% skim milk. Membranes were incubated with primary antibodies overnight at 4 °C, followed by incubation with HRP-conjugated secondary antibodies (goat anti-rabbit or goat anti-mouse IgG) at room temperature for 2 h. Protein bands were visualized on NC membranes using ECL ultra-sensitive chemiluminescence solution and a Bio-Rad gel imaging and analysis system.

HepG2 cells [4] = assay: Transwell migration assay; settings: HepG2, 2, 4, 8 μM, 48 h, vs control, p < 0.01
Text: To investigate the effect of the compounds on the migration of wild-type liver cancer cells, we conducted wound healing and Transwell assays to assess changes in the migration ability of HepG2 cells after treatment with compounds 11m and 11t. […] The Transwell migration assay, another important method for evaluating cell migration, involves seeding tumor cells in a chamber and assessing their migration ability by counting the number of cells that pass through the membrane. […] These findings indicate that compounds 11m and 11t can inhibit the migration ability of liver cancer cells in a concentration-dependent manner.
HepG2 cells were starved in serum-free Gibco DMEM for 24 h, then seeded in the upper chamber of a 24-well Transwell plate (Corning Inc., Corning, NY, USA) at a density of 5 × 10^5 cells/mL. 11m or 11t was added to achieve final concentrations of 0, 2, 4, and 8 μM. The upper chamber’s total volume was 200 μL, while the lower chamber contained 600 μL of Gibco DMEM with 20% serum. After 48 h of incubation, the culture medium was washed off with PBS, and the cells were fixed with 4% paraformaldehyde at room temperature for 20 min. […] Images were taken under an inverted microscope, and quantification was performed using ImageJ.

SMILES | colony formation in HepG2 cells (HepG2 cells [1]; 4 μM) | colony formation in HepG2 cells (HepG2 cells [1]; 8 μM) | total proportion of apoptotic HepG2 cells (HepG2 cells [2]; 2 μM) | total proportion of apoptotic HepG2 cells (HepG2 cells [2]; 4 μM) | total proportion of apoptotic HepG2 cells (HepG2 cells [2]; 8 μM) | expression level of Bcl-2 [3] | expression level of Caspase-3 [3] | expression level of Caspase-9 [3] | expression level of PARP [3] | level of cleaved Caspase-3 [3] | level of cleaved PARP [3] | expression of Bax [3] | number of cells that migrated through the microporous membrane (HepG2 cells [4])
COc1cc2ncnc(Nc3cccc(-c4cn(Cc5ccc(I)cc5)nn4)c3)c2cc1OCCCN1CCOCC1 [Compound 11m, N-(3-(1-(4-iodobenzyl)-1H-1,2,3-triazol-4-yl)phenyl)-7-methoxy-6-(3-morpholinopropoxy)quinazolin-4-amine] | began to noticeably inhibit colony formation | almost completely suppressed | 1.59% | 9.46% | 31.66% | decreased | decreased | decreased | decreased | increased | increased | increased | significantly reduced
COc1cc2ncnc(Nc3cccc(-c4cn(Cc5cccc(I)c5)nn4)c3)c2cc1OCCCN1CCOCC1 [Compound 11t, N-(3-(1-(3-iodobenzyl)-1H-1,2,3-triazol-4-yl)phenyl)-7-methoxy-6-(3-morpholinopropoxy)quinazolin-4-amine] | began to noticeably inhibit colony formation | almost completely suppressed | 13.44% | 33.57% | 62.82% | decreased | decreased | decreased | decreased | increased | increased | increased | significantly reduced
